From patent US20050266435A1, “VR1 receptors and uses thereof” (priority 2004, published 2005)

Legend:
[1] = molecular target: T1, mutant VR1 receptor Y511C (Homo sapiens, UniProt Q8NER1, Y511C); assay: Calcium imaging with fura-2 in transfected HEK293 cells, low pH (pH 5.1) stimulus; format: cell-based; parameters: expressed in transfected cells; host or cells: HEK293
Description: (§1) The resulting sequence-verified mutant VR1 DNA was inserted into the pcDNA3.1 vector (Invitrogen). Human HEK293 cells were then transfected with the DNA, incubated at 37° C. for 24-48 hrs, and then analyzed for receptor response using calcium imaging techniques.
(§2) Calcium imaging was performed using a Zeiss Axiovert 200M fluorescence microscope equipped with a Photonics Polychrome IV monochrometer fluorescence excitation system as well as a multivalve perfusion system for delivering drugs. Cells were plated on 12 mm glass coverslips and loaded with fura2-AM for 30 min at 37° C. Imaging was performed by alternatively measuring the fluorescence excited at 340 nm and 380 nm at 5 sec time intervals. The ratio between these measured fluorescence values (F340/F380) was then calculated and graphed as a function of time. The 340/380 fluorescence ratio is proportional in a nonlinear way to the intracellular free calcium concentration. Since VR1 is a calcium channel, its opening results in an influx of calcium into the cytoplasm and an increase in the 340/380 fluorescence ratio.
(§3) A normal saline (pH 7.6) wash solution was used as the control solution. […] Compound 18 is named 4-(3-Chloropyridin-2-yl)-N-(4-trifluoromethyl-phenyl)benzamide, and is described and disclosed in commonly owned co-pending International Application No. PCT/US04/033099 filed Oct. […]

[2] = molecular target: human VR1 (Homo sapiens, UniProt Q8NER1); conditions: cited from earlier work
[3] = molecular target: rat VR1 (Rattus norvegicus, UniProt O35433); conditions: cited from earlier work
Sequence of rat VR1 (O35433 whole entry): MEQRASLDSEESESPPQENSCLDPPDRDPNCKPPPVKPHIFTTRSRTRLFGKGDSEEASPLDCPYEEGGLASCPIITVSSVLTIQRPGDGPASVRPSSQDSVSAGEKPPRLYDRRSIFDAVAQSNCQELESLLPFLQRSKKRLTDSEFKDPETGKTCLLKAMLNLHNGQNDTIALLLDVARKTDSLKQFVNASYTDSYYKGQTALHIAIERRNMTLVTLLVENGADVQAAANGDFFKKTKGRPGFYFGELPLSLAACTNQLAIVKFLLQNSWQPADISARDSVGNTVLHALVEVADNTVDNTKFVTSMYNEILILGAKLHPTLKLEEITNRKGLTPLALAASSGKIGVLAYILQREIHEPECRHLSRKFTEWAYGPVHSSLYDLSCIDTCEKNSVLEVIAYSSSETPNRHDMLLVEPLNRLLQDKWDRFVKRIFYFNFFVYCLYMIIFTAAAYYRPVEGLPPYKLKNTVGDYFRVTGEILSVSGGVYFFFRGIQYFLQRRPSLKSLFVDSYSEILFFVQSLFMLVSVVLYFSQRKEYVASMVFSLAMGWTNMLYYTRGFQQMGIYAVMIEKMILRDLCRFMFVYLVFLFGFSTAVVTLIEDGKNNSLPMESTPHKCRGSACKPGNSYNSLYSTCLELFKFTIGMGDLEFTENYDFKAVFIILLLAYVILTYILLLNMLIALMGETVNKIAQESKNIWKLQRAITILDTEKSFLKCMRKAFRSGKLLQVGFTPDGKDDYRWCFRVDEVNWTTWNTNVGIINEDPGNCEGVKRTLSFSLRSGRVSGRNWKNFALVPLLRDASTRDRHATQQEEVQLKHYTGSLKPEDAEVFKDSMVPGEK

[4] = molecular target: T1, mutant VR1 receptor Y511C; assay: Specific binding of 3H-Resiniferatoxin to membranes of 293 HEK cells; parameters: expressed in transfected cells; host or cells: HEK293; conditions: 3H-RTX 0.5 nM, absence or presence of unlabeled RTX 200 nM
Description: Specific binding of ^3H-Resiniferatoxin (RTX) to membranes of 293 HEK cells expressing human VR 1 and mutant VR 1 receptor Y511C was assessed and the results are presented in FIG. 6. Binding of ^3H-RTX (0.5 nM) to the membranes was conducted in the absence (labeled total binding) or presence (labeled non specific binding) of unlabeled RTX (200 nM) as indicated.

[5] = molecular target: T2, mutant channel S512Y (VR1) (Homo sapiens, UniProt Q8NER1, S512Y); assay: Calcium imaging with fura-2 in transfected HEK293 cells, low pH stimulus; format: cell-based; parameters: expressed in transfected cells; host or cells: HEK293
Description: as §1, §2, §3

[6] = molecular target: T1, mutant VR1 receptor Y511C; assay: Two-electrode voltage clamp in Xenopus oocytes, capsaicin activation; format: cell-based; conditions: capsaicin concentrations as high as 100 μM
Description: (§4) The ability of capsaicin to activate the mutant VR1 receptors was evaluated in an oocyte system. cDNAs containing the coding sequences of the unmutated human VR1 receptor as well as the mutant receptors Y511A, […], and S512Y were placed into the multiple-cloning site in the pTNT vector (Promega), which contains a T7 promoter sequence, the beta-globin 5′UTR, and a polyadenylation sequence to enhance translation and RNA stability. RNA was synthesized in-vitro using T7 RNA polymerase. The RNA for each channel was injected into Xenopus oocytes (obtained from Nasco, Inc) and incubated at 16° C. for 3-5 days. Standard two-electrode voltage clamp recordings were used to analyze the function of each expressed channel. Solutions were passed over the oocytes using a multiple-valve perfusion system.

[7] = molecular target: T3, mutant VR1 receptor Y511A (Homo sapiens, UniProt Q8NER1, Y511A); assay: as above; format: cell-based; conditions: capsaicin concentrations as high as 100 μM
T3 construct: expressed in transfected cells; host or cells: Xenopus oocytes (RNA injected, pTNT vector)
Description: as §4

[8] = molecular target: T4, wild-type human VR1 receptor (Homo sapiens, UniProt Q8NER1); assay: as above; format: cell-based; conditions: 10 μM capsaicin
T4 construct: expressed in transfected cells; host or cells: Xenopus oocytes (RNA injected, pTNT vector)
Description: as §4

[9] = molecular target: T2, mutant channel S512Y (VR1); assay: as above; format: cell-based; parameters: expressed in transfected cells; host or cells: Xenopus oocytes (RNA injected, pTNT vector)
Description: as §4

[10] = molecular target: T5, mutant channel Y511A (VR1) (Homo sapiens, UniProt Q8NER1, Y511A); assay: Calcium imaging with fura-2 in transfected HEK293 cells, low pH stimulus; format: cell-based
T5 construct: expressed in transfected cells; host or cells: HEK293
Description: as §1, §2, §3

Q: Which IC50 ([1]; mutant VR1 receptor channel, read-out: IC50 for channel blocking activity) does the source give for O=C(Nc1ccc(C(F)(F)F)cc1)c1ccc(-c2ncccc2Cl)cc1 [Compound 18, 4-(3-Chloropyridin-2-yl)-N-(4-trifluoromethyl-phenyl)benzamide] here?
A: Its IC50 is 135 nM.

Q: Which “potency of inhibition of capsaicin activation, human VR1 versus rat” value ([2]; greater potency on human VR1 receptors than rat) does the source give for Oc1cc2c(cc1O)CN(C(=S)NCCc1ccc(Cl)cc1)CCC2 [capsazine] here?
A: The value was “approximately 6 fold”.

Q: What about the “block of VR1-mediated heat response” value ([2]; human VR1) of the same molecule?
A: Its value is “highly effective”.

Q: What about the “block of low pH-evoked responses” value ([2]; human VR1) of the same molecule?
A: The value was “blocked”.

Q: And the “block of low pH-evoked responses” value [3]?
A: The value was “not”.

Q: And the “inhibition of heat response” value [3]?
A: Its value is “weak inhibitor”.

Q: With C=C(C)[C@]12C[C@@H](C)[C@@]34O[C@](Cc5ccccc5)(O[C@@H]1[C@@H]3C=C(COC(=O)Cc1ccc(O)c(OC)c1)C[C@]1(O)C(=O)C(C)=C[C@@H]41)O2 [RTX, resiniferatoxin] as the molecule, how does the “binding to the mutant VR1 receptor” value [4] read?
A: The value was “no significant binding”.

Q: With COc1cc(CC(=O)OCC2=C[C@H]3[C@@H]4C(C)(C)[C@]4(OC(C)=O)[C@H](OC(=O)Cc4ccccc4)[C@@H](C)[C@]3(O)[C@@H]3C=C(C)C(=O)[C@@]3(O)C2)ccc1O [PPAHV, phorbol 12-phenylacetate 13 acetate 20-homovanillate] as the molecule, how does the “agonist activity on human VR1” value ([2]; up to a concentration of 10•M) read?
A: The value was “essentially inactive”.

Q: With COc1cc(CNC(=O)CCCC/C=C/C(C)C)ccc1O [capsaicin] as the molecule, how does the “sensitivity of channel to capsaicin” value [5] read?
A: The value was “capsaicin-insensitive”.

Q: What about the “capsaicin response (current)” value [6] of the same molecule?
A: The value was “no detectable capsaicin response”.

Q: What about the “capsaicin response (current)” value [7] of the same molecule?
A: Its value is “no detectable capsaicin response”.

Q: What about the “capsaicin response (current)” value [8] of the same molecule?
A: Its value is “large response”.

Q: And the “capsaicin response (current)” value ([9]; 10 μM capsaicin (data not shown))?
A: Its value is “no detectable response”.

Q: And the “capsaicin response (current)” value ([9]; 100 μM capsaicin)?
A: The value was “small capsaicin response”.

Q: What about the “sensitivity of channel to capsaicin” value [10] of the same molecule?
A: The value was “capsaicin-insensitive”.

Q: What about the “response to capsaicin (calcium influx)” value ([1]; 250 nM capsaicin, Y511C in transfected 293 cells) of the same molecule?
A: The value was “no detectable response”.
